Data taken from the NIST ThermoML archive (doi:10.1016/j.jct.2014.07.005).

Experiments:
[1] = mn = molality of the nth substance listed, in mol/kg; details: 100 kPa, Liquid; for viscosity: Capillary tube (Ostwald / Ubbelohde) method; for mass density: Vibrating tube method
[2] = 100 kPa, Liquid, Capillary tube (Ostwald / Ubbelohde) method

CCCCCCCCn1cc[n+](C)c1.[Br-] [1-methyl-3-octylimidazolium bromide] + O
[1]
Details	mass density, m1 = 0.0035 [kg/m3]	mass density, m1 = 0.0111 [kg/m3]	mass density, m1 = 0.0185 [kg/m3]	viscosity, m1 = 0.0035 [mPa·s]	viscosity, m1 = 0.0111 [mPa·s]	viscosity, m1 = 0.0185 [mPa·s]
288.15 K	999.275	999.611	999.913	1.146	1.151	1.154
293.15 K	998.364	998.697	998.983	1.006	1.013	1.021
298.15 K	997.197	997.499	997.781	0.895	0.9	0.904
303.15 K	995.792	996.09	996.32	0.8	0.805	0.807
308.15 K	994.141	994.373	994.59	0.721	0.723	0.728
313.15 K	992.331	992.622	992.876	0.655	0.659	0.66

O [water]
[2]
Details	viscosity [mPa·s]
288.15 K	1.139
293.15 K	1.002
298.15 K	0.89
303.15 K	0.798
308.15 K	0.719
313.15 K	0.653

O [water] + CCCCCCCCn1cc[n+](C)c1.[Br-]
[1], m2 = 0
Details	viscosity [mPa·s]
288.15 K	1.139
293.15 K	1.002
298.15 K	0.89
303.15 K	0.798
308.15 K	0.719
313.15 K	0.653
